Among the data in patent US7560586B2, “Acid and ester compounds and methods of using the same” (SmithKline Beecham Corporation, priority 2002, dated 2009) are reading values, retold here.

Experiment [1] concerns the target T1, LXRα ligand binding domain (Homo sapiens, UniProt Q13133).
T1 construct: his tag; made in house
T1 sequence (Q13133 183-447): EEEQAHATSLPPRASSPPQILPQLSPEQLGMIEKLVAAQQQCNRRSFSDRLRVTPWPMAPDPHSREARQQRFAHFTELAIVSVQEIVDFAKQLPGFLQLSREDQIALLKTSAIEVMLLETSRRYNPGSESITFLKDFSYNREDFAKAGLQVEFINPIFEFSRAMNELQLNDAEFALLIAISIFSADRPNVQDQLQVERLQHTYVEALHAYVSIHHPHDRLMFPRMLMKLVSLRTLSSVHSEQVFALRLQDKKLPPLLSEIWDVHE
T1 sequence (Q15788 676-700 partner): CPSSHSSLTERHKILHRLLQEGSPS
The experiment can be described thus: Ligand Sensing Assay for LXRα Agonist Activity. Conditions: 1 μM; over a background reading of 10000 fluorescence units. Type of experiment: biochemical. As to the method: Test Method 2: Ligand Sensing Assay for LXRα Agonist Activity
The assay for LXRα was run according to the procedures of Test Method 1, above using his-tagged LXRα ligand binding domain (amino acids 183447 of Genbank accession number U22662, with the 14th amino acid corrected to A from R). In this assay 1 μM 24(S), 25-epoxycholesterol gave a reading of 20000 fluorescence units over a background reading of 10000 fluorescence units.

Experiment [2] addresses T2, human LXRβ ligand binding domain (Homo sapiens, UniProt P55055).
T2 construct: LXRβLBD(185-461) is eluted with a gradient from 50 to 500 mM imidazole; made in house; host or cells: E. coli BL21(DE3), vector pRSETa
T2 sequence (P55055 184-460 limits assumed): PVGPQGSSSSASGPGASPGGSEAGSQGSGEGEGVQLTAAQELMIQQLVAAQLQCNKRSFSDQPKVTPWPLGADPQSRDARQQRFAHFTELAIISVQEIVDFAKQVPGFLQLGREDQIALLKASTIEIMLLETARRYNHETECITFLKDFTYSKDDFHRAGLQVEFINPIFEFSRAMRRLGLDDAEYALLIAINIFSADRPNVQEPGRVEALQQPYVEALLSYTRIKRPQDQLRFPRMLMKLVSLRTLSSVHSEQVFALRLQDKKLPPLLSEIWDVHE
T2 sequence (Q15788 676-700 partner limits assumed): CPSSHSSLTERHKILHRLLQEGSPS
Put plainly: Ligand Sensing Assay (LiSA) for LXRβ Agonist Activity (recruitment of SRC1-derived peptide, HTRF). In kind it is biochemical. The conditions noted are these: 1 μM; over a background reading of 10000 fluorescence units. From the text:
Test Method 1: Ligand Sensing Assay (LiSA) for LXRβ Agonist Activity
This assay measures the recruitment of a peptide derived from the coactivator protein, SRC1, to the agonist-bound LXRβ. Peptides derived from other nuclear receptor cofactors may be similarly prepared and assayed.
To generate the human LXRβ ligand binding domain suitable for LiSA, a modified polyhistidine tag (MKKGHHHHHHG) (SEQ ID No. 1) was fused in frame to the human LXRβ ligand binding domain (amino acids 185461 of Genbank accession number U07132) and subcloned into the expression vector pRSETa (Invitrogen) under the control of an IPTG inducible T7 promoter. The human LXRβ ligand binding domain was expressed in E. coli strain BL21(DE3). Ten-liter fermentation batches were grown in Rich PO4 media with 0.1 mg/mL Ampicillin at 25° C. for 12 hours, cooled to 9° C. and held at that temperature for 36 hours to a density of OD600=14. At this cell density, 0.25 mM IPTG was added and induction proceeded for 24 hours at 9° C., to a final OD600=16. […]
Typically 25-50 g of cell paste is resuspended in 250-500 mL TBS, pH 8.0 (25 mM Tris, 150 mM NaCl). […] After washing to baseline absorbance with equilibration buffer, the column is washed with approximately one column volume of TBS pH […] containing 95 mM imidazole. […] After washing to baseline absorbance with the dilution buffer the protein is eluted with a gradient from 50-500 mM NaCl. […]
(In general: In TR-FRET formats the signal depends on donor and acceptor labels being close together.)

As for `C[C@H](CC[C@@H]1OC1(C)C)[C@H]1CC[C@H]2[C@@H]3CC=C4C[C@@H](O)CC[C@]4(C)[C@H]3CC[C@]12C` [24(S), 25-epoxycholesterol], the reading in experiment [1] and in experiment [2] was 20000 fluorescence units each time.
